{
  "source": "paper PMC3966047",
  "about": "“Analysis of the minimal specificity of caspase-2 and identification of Ac-VDTTD-AFC as a caspase-2-selective peptide substrate” (Bioscience Reports, 2014)",
  "key": {"[1]": {"test_system": "auto-activating caspase-3 in HEK-293T cell lysate", "test": "Fluorogenic peptide cleavage by lysates of HEK-293T cells expressing auto-activating caspase-3", "type": "biochemical, human embryonic kidney cells", "conditions": "for cleavage by lysates of cells expressing caspase-3 (in words): HEK-293T lysate, auto-activating caspase-3, 0.1 mM substrate, rate of fluorescence increase, three independent transfections", "description": "(§1) Caspases were pre-activated for 30 min at 37°C in their preferred buffers, then diluted and mixed with fluorogenic peptide substrates. Fluorescence (excitation 410 nm, emission 500 nm) was measured every 10–60 s for up to 1 h using a FluoStar Galaxy (BMG Labtech). The maximal slope of each curve was calculated. A standard curve, using free AFC (Sigma), was used to convert fluorescence emissions into concentration of AFC produced during the cleavage reactions. Prism 5.0 software was used to determine kcat and KM from three to four independent experiments, as previously described. Ac-DEVD-AFC and Ac-VDVAD-AFC were purchased from Enzo Life Sciences. The custom substrates Ac-VDTTD-AFC and Ac-VDVPD-AFC were synthesized by 21st Century Biochemicals. 150 nM Bid or 100 nM Runx1 proteins were incubated with specified concentrations of caspases in their preferred buffers for 1 h (Runx1) or 0.5 h (Bid variants) at 37°C, then subjected to SDS–PAGE and immunoblotting with anti-Bid (#AF860 R&D Systems) or anti-His6 antibodies (#A00186 GenScript). Secondary antibodies were anti-mouse-HRP (#A9044, Sigma) or anti-goat-HRP (#6300-05, Southern Biotech). The SuperSignal West Dura Substrate (Thermo Scientific) was used to detect signals and quantitation of sub-saturated exposures was performed using a Syngene G:Box and Image Lab 3.0 software (BioRad). Linear regression was used to determine the caspase concentration, which cleaved half of each protein.\n(§2) HEK-293T cells [human embryonic kidney cells expressing the large T-antigen of SV40 (simian virus 40)] were cultured, transfected, harvested and lysed as described except that protease inhibitors were not used. Each lysate was mixed with the appropriate fluorogenic substrate (0.1 mM) in caspase buffer, and fluorescence was monitored as outlined above."}, "caspase-2 [2]": {"test_system": "caspase-2", "test": "Fluorogenic peptide cleavage by purified caspase-2 (AFC release)", "type": "biochemical", "description": "(§3) Caspases-2, -3 and -8 were purified using NiNTA resin (Qiagen) from BL21(DE3)pLysS bacteria (Novagen/Merck) transformed with pET23a–caspase-2^Δ1−149 [44], pET23a–caspase-3 [54] or pET15b–caspase-8^Δ1−216 plasmids. Induction conditions were: caspase-2, 0.4 mM IPTG (isopropyl β-D-thiogalactoside), 2 h 37°C; caspase-3, 0.2 mM IPTG, 3 h 30°C; caspase-8, 1 mM IPTG, 4 h 25°C. Caspases were active site-titrated using zVAD-fmk (Merck). ArcticExpress DE3 bacteria (Agilent Technologies) were transformed with the pET23a Bid expression plasmids described above, induced for 48 h at 10°C using 1 mM IPTG, then the His6-tagged Bid proteins were purified using NiNTA resin (Qiagen). Recombinant proteins were quantitated using the Bicinchoninic acid protein assay kit (Sigma). Runx1 proteins were synthesized using the TNT T7 quick coupled transcription/translation system (Promega) with non-radioactive methionine, using intact Runx1–pET23a plasmids as templates. The concentration of Runx1 proteins was determined by quantitative anti-His6 immunoblotting, using purified AcP35–His6 [56] as a standard.\nas §1"}, "caspase-3 [3]": {"molecular_target": "T1, caspase-3 (Homo sapiens, UniProt P42574)", "T1 construct": "made in house; host or cells: E. coli BL21(DE3)pLysS", "T1 sequence (P42574 29-175 limits assumed)": "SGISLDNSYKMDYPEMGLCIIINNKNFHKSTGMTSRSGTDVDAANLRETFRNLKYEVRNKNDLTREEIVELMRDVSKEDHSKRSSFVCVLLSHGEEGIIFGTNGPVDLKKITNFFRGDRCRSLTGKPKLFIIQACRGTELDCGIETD", "T1 sequence (P42574 176-277 limits assumed)": "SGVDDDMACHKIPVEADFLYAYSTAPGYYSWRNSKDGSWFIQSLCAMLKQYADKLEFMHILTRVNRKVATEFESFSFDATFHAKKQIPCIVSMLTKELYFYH", "test": "Fluorogenic peptide cleavage by purified caspase-3 (AFC release)", "type": "biochemical", "description": "as §3\nas §1, with “150 nM Bid or 100 nM Runx1 proteins were incubated with specified concentrations of caspases in their preferred buffers for 1 h (Runx1) or 0.5 h (Bid variants) at 37°C, then subjected to SDS–PAGE and immunoblotting with anti-Bid (#AF860 R&D Systems) or anti-His6 antibodies (#A00186 GenScript). Secondary antibodies were anti-mouse-HRP (#A9044, Sigma) or anti-goat-HRP (#6300-05, Southern Biotech).” left out, “Linear regression was used to determine the caspase concentration, which cleaved half of each protein.” left out"}, "[4]": {"test_system": "auto-activating caspase-2 in HEK-293T cell lysate", "test": "Fluorogenic peptide cleavage by lysates of HEK-293T cells expressing auto-activating caspase-2", "type": "biochemical, human embryonic kidney cells", "conditions": "for caspase-2 versus caspase-3 selectivity in cell lysates (in words): HEK-293T lysates with auto-activating caspase-2 or -3, 0.1 mM substrate", "description": "as §1, §2"}, "caspase-2 [5]": {"test_system": "caspase-2", "conditions": "aldehyde inhibitors; cited from earlier work", "text": "(§4) Research into caspase-2 biology has been hampered by a dearth of selective reagents capable of distinguishing between caspases-2 and -3. Peptides and inhibitors based on the sequence VDVAD are marketed as ‘caspase-2-specific’ but also react strongly with caspase-3."}, "caspase-3 [6]": {"molecular_target": "T1, caspase-3", "conditions": "aldehyde inhibitors; cited from earlier work", "text": "as §4"}, "caspase-2 [7]": {"test_system": "caspase-2", "conditions": "cited from earlier work", "text": "(§5) Some of the confusion regarding the function of caspase-2 may stem from researchers’ use of non-specific tools for monitoring its activity and inhibition. […] Subsequent studies have confirmed the lack of specificity associated VDVAD-based tools, yet many researchers continue to employ substrates and inhibitors derived from this peptide sequence as c ..."}, "caspase-3 [8]": {"molecular_target": "T1, caspase-3", "conditions": "compared with caspase-2; cited from earlier work", "text": "as §5"}},
  "note": "Entries after “also recorded” stand apart in the source; their conditions may differ. Read-outs that look alike come from different tables or passages of the source. The star is where a group is joined. AFC = O=c1cc(C(F)(F)F)c2ccc(N*)cc2o1; pNA = O=[N+]([O-])c1ccc(N*)cc1",
  "data": [
    {"substance": "Ac-DEVD-AFC [reference compound]", "values": [
      {"measurement": "cleavage by lysates of cells expressing caspase-3 (in words)", "setting": "[1]", "result": "extracts from cells expressing active caspase-3 cleaved Ac-DEVD-AFC most efficiently"}
    ]},
    {"substance": "Ac-VDTTD-{AFC} [custom fluorogenic substrate synthesized by 21st Century Biochemicals]", "values": [
      {"measurement": "cleavage by caspase-2 (in words)", "setting": "caspase-2 [2]; purified caspase-2", "result": "efficiently cleaved by purified caspase-2"},
      {"measurement": "cleavage efficiency relative to Ac-VDVAD-AFC (caspase-2)", "setting": "caspase-2 [2]; purified caspase-2, fold versus Ac-VDVAD-AFC", "result": "four"},
      {"measurement": "selectivity for caspase-2 relative to caspase-3 (in words)", "setting": "caspase-2 [2]; purified caspases-2 and -3", "result": "better selectivity for caspase-2 relative to caspase-3 than reagents that are currently available; also recorded: exhibits enhanced caspase-2 sensitivity and specificity, relative to Ac-VDVAD-AFC"},
      {"measurement": "cleavage by caspase-3 (in words)", "setting": "caspase-3 [3]", "result": "only cleaved it slightly more efficiently than Ac-VDVAD-AFC"},
      {"measurement": "cleavage efficiency relative to Ac-VDVAD-AFC (caspase-3)", "setting": "caspase-3 [3]; fold versus Ac-VDVAD-AFC", "result": 1.7, "unit": "times"},
      {"measurement": "cleavage by lysates of cells expressing caspase-2 (in words)", "setting": "[4]; HEK-293T lysate, auto-activating caspase-2, 0.1 mM substrate, rate of fluorescence increase, three independent transfections", "result": "efficiently cleaved by purified caspase-2 and auto-activating caspase-2 in mammalian cells; also recorded: lysates from cells expressing active caspase-2 cleaved Ac-VDTTD-AFC more efficiently than the other peptides"},
      {"measurement": "caspase-2 versus caspase-3 selectivity in cell lysates (in words)", "setting": "[4]", "result": "significantly more selective for caspase-2 than the commonly used Ac-VDVAD-AFC peptide; also recorded: does not offer this degree of specificity"},
      {"measurement": "VDTTDase activity relative to DEVDase activity", "setting": "[4]; lysates from cells expressing caspase-2, background activity in vector transfectant lysates subtracted, 0.1 mM substrate", "result": "~14", "unit": "times"},
      {"measurement": "cleavage by lysates of cells expressing caspase-3 (in words)", "setting": "[1]", "result": "proteolysed by lysates containing caspase-3, but at a slower rate than by lysates from cells expressing caspase-2"},
      {"measurement": "DEVDase activity relative to VDTTDase activity", "setting": "[1]; cells expressing active caspase-3, Ac-DEVD-AFC versus Ac-VDTTD-AFC, 0.1 mM substrate", "result": 3.3, "unit": "times"}
    ]},
    {"substance": "Ac-VDVAD-aldehyde", "values": [
      {"measurement": "inhibition of caspase-2 compared with caspase-3 (in words)", "setting": "caspase-2 [5]", "result": "inhibited caspases-2 and -3 with similar potencies"},
      {"measurement": "inhibition of caspase-3 compared with caspase-2 (in words)", "setting": "caspase-3 [6]", "result": "inhibited caspases-2 and -3 with similar potencies"}
    ]},
    {"substance": "Ac-VDVAD-pNA", "values": [
      {"measurement": "cleavage by caspase-2 (in words)", "setting": "caspase-2 [7]", "result": "could efficiently cleave peptides containing the sequence VDVAD"},
      {"measurement": "cleavage by caspase-3 (in words)", "setting": "caspase-3 [8]", "result": "caspase-3 could cleave these peptides with similar kinetics"}
    ]},
    {"substance": "Ac-VDVAD-{AFC} [classical caspase-2 substrate, purchased from Enzo Life Sciences, reference compound]", "values": [
      {"measurement": "caspase-2 versus caspase-3 selectivity in cell lysates (in words)", "setting": "[4]", "result": "cleaved only slightly better by extracts from cells expressing caspase-2 than caspase-3"}
    ]}
  ]
}
